In publication PMC12463120, “Phenylalanine‐Based DNA‐Encoded Chemical Libraries for the Discovery of Potent and Selective Small Organic Ligands Against Markers of Cancer and Immune Cells” (Advanced Science, 2025):

How the values were obtained:
[1] = system: HT-1080.hPSMA tumor cells; assay: Flow cytometry on HT-1080.hPSMA cells; type: cell-based; conditions: 250 nM
Protocol: (§1) Selection results were decoded with C++^[ [61] ^] and visualized using MATLAB R2019b (MathWorks). EFs were calculated by dividing the DNA sequence counts for each hit compound by the average DNA sequence count from the corresponding DEL screening. Additionally, Z‐score values were calculated following methods previously published,^[ [60] ^] as present in Supporting Information. Hit compounds with high EFs in the target protein selections and low EFs in the negative controls (anti‐target and streptavidin selections) were selected for hit validation activities. All compounds were synthesized using either solid‐phase peptide synthesis or solution‐phase methodologies. Affinities of fluorescein‐bearing hits were determined by FP or ELISA measurements. […] ACP3 colorimetric inhibition assay was performed with serially diluted compounds at a fixed concentration (5 mM in PBS) of para‐nitrophenyl phosphate as substrate. Binding kinetics were assessed on a Biacore X100 instrument with the target protein immobilized on a CM5 chip at 4′000 RUs. Cell binding of fluorescent ligands was evaluated using flow cytometry against antigen‐positive and antigen‐negative (wild‐type) cancer cells. in vitro tissue uptake of ^177Lu‐labelled DOTAGA PSMA‐radioligands was measured via autoradiography. Prism 9 software (GraphPad Software) was used for data analysis of FP, ELISA, PD‐10, SPR, and enzymatic assay measurements. SPR sensograms were fitted with the Biacore X100 Evaluation Software. Flow cytometry data was processed with the FlowJo 10.4 software.
HT1080.hPSMA and PC3.hACP3 cell lines were generated by lentiviral transduction on wild type cells (HT1080.wt and PC3.wt), according to published procedures9. […]
Cancer cells were detached with an Accutase® cell detachment solution, resuspended in a standard culture medium, and transferred to falcon tubes. Cells were counted and centrifuged at 400 rcf for 3 min. […] Data were acquired halting the measurement at 10´ 000 events on a Cytoflex S flow cytometer (Beckman Coulter), and analyzed using the FlowJo software v10 (BD Biosciences). […]

PSMA [2] = target: T1, PSMA (Homo sapiens, UniProt Q04609); assay: Fluorescence polarization (FP) affinity against PSMA; type: binding; conditions: fluoresceinated compounds
T1 construct: Avi-tag; made in house; host or cells: CHO cells
T1 sequence (Q04609 whole entry): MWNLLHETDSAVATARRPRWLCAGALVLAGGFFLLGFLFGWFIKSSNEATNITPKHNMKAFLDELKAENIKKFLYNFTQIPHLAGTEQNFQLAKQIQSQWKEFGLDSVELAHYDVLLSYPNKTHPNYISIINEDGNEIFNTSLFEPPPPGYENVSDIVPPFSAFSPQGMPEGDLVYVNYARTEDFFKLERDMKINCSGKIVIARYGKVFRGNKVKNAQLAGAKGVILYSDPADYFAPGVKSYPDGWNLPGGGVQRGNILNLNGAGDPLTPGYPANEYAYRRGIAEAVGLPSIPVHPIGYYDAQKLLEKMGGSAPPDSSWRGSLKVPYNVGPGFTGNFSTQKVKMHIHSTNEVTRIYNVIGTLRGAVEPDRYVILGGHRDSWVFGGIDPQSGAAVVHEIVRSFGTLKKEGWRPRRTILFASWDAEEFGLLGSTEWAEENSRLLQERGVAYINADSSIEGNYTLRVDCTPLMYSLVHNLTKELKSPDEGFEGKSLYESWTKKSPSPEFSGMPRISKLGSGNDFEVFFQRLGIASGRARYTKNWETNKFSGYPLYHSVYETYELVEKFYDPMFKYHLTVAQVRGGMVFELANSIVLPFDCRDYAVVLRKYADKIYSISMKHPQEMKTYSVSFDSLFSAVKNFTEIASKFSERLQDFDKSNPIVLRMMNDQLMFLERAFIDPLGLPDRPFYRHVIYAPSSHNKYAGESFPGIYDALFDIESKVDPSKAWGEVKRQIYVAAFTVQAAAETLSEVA
Protocol: Hits obtained from FM‐DEL1 (A1452 and A3113) and FM‐DEL2 (A3113/B423) were re‐synthesized as stereo‐chemically pure off‐DNA compounds derivatized with a C6 linker featuring a fluorescein moiety (coupled to fluorescein isothiocyanate‐FITC) (compounds 1–6) [Figure 2E]. The binding affinity against PSMA and GCP3 (KD) of fluoresceinated compounds 1–6 was measured by fluorescence polarization (FP). […] The superiority of compound 5 (S‐configuration) in binding PSMA over compound 6 (R‐configuration) was confirmed by molecular docking studies [Figure S48, Supporting Information]. […] The presence of the sole building block A3113 on the 3‐iodo‐phenylalanine scaffold in the S‐configuration gives adequate selectivity for PSMA over GCP3. The addition of the second building block (B423) enhances both affinity and selectivity for the target.
Selection results were decoded with C++^[ [61] ^] and visualized using MATLAB R2019b (MathWorks). EFs were calculated by dividing the DNA sequence counts for each hit compound by the average DNA sequence count from the corresponding DEL screening. Additionally, Z‐score values were calculated following methods previously published,^[ [60] ^] as present in Supporting Information. […] Affinities of fluorescein‐bearing hits were determined by FP or ELISA measurements. […] Binding kinetics were assessed on a Biacore X100 instrument with the target protein immobilized on a CM5 chip at 4′000 RUs. Cell binding of fluorescent ligands was evaluated using flow cytometry against antigen‐positive and antigen‐negative (wild‐type) cancer cells. in vitro tissue uptake of ^177Lu‐labelled DOTAGA PSMA‐radioligands was measured via autoradiography. […]
(§2) The protein was then concentrated using Vivaspin® 20 centrifugal concentrators (30’000 Da molecular weight cutoff, Sartorius, #VS2012) and then purified by SEC or PD-10 column. The fractions were measured (absorption at 280 nm) on a Nanodrop 2000 Spectrophotometer to combine protein-containing fractions. […]
(§3) 2.11 Fluorescence polarization (FP) measurements with fluoresceine-labelled […]

recombinant human ACP3 = target: T2, recombinant human ACP3 (Homo sapiens, UniProt P15309); assay: Fluorescence polarization (FP) affinity against human ACP3; type: binding; conditions: PSMA ligands as negative controls
T2 construct: made in house; host or cells: CHO cells
T2 sequence (P15309 33-386): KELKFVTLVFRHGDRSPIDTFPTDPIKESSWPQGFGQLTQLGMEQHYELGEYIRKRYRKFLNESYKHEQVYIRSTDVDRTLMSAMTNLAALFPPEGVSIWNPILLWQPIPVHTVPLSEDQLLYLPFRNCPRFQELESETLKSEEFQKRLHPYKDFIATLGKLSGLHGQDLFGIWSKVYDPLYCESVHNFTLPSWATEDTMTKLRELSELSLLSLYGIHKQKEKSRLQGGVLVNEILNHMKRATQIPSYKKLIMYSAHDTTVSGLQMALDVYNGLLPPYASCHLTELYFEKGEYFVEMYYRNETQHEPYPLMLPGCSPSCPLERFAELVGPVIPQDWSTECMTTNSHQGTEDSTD
Protocol: as §1, with “SPR sensograms were fitted with the Biacore X100 Evaluation Software. Flow cytometry data was processed with the FlowJo 10.4 software.” left out
as §2
(§4) Protein dissolved in PBS or HEPES buffer was incubated for 30-60 min with 5 equiv. of EZ-LinkTM NHS-LC-Biotin (Thermo Fisher Scientific, #21336). […] The fractions were measured (absorption at 280 nm) on a Nanodrop 2000 Spectrophotometer to combine protein-containing fractions. […]
as §3

PSMA [3] = target: T1, PSMA; assay: Size-exclusion chromatography co-elution with PSMA; type: binding; conditions: recombinant PSMA vs GCP3
Protocol: (§5) Selection results were decoded with C++^[ [61] ^] and visualized using MATLAB R2019b (MathWorks). EFs were calculated by dividing the DNA sequence counts for each hit compound by the average DNA sequence count from the corresponding DEL screening. Additionally, Z‐score values were calculated following methods previously published,^[ [60] ^] as present in Supporting Information. Hit compounds with high EFs in the target protein selections and low EFs in the negative controls (anti‐target and streptavidin selections) were selected for hit validation activities. All compounds were synthesized using either solid‐phase peptide synthesis or solution‐phase methodologies. Affinities of fluorescein‐bearing hits were determined by FP or ELISA measurements. […] Binding kinetics were assessed on a Biacore X100 instrument with the target protein immobilized on a CM5 chip at 4′000 RUs. Cell binding of fluorescent ligands was evaluated using flow cytometry against antigen‐positive and antigen‐negative (wild‐type) cancer cells. in vitro tissue uptake of ^177Lu‐labelled DOTAGA PSMA‐radioligands was measured via autoradiography. […]
as §4

human CAIX (hCAIX) = target: T3, human CAIX (hCAIX) (Homo sapiens, UniProt Q16790); assay: Fluorescence polarization (FP) affinity against hCAIX; type: binding; conditions: fluorescein derivatives
T3 construct: made in house; host or cells: CHO cells
Protocol: A dilution series of target proteins (i.e., PSMA, GCP3, CAIX, CAII) in the respective formulation buffer were separately prepared in a black 384-well plate (non-binding Greiner small volume plate). Test compounds functionalized with fluorescein were diluted to a concentration between 5 and 10 nM (5 μL) and incubated for 15 min with the protein (final volume corresponding to 10 µL). The fluorophore was excited at 485 nm, and anisotropy was measured at 535 nm on a Spectra Max Paradigm multimode plate reader (Tecan). The experiments were performed in triplicate. KD values measured using this FP method can differ from dissociation constants obtained by other physical methods (e.g., surface plasmon resonance, see section below).

[4] = system: SK-RC-52 renal cell carcinoma cells; assay: Flow cytometry on SK-RC-52 cells; type: cell-based; conditions: 100 nM
bovine CAII (bCAII) = bovine CAII (bCAII) (Bos taurus, UniProt P00921); assay: Fluorescence polarization (FP) affinity against bCAII; type: binding
bovine CAII (bCAII), sequence (P00921 whole entry): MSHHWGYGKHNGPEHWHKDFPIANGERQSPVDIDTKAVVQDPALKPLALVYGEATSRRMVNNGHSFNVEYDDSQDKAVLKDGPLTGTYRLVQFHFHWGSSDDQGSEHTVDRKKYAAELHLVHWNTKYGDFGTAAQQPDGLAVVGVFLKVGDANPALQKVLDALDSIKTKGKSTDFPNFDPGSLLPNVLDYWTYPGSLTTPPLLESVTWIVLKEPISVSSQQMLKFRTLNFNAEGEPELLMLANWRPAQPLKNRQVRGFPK
Protocol: as §5, §4

murine CAIX (mCAIX) = murine CAIX (mCAIX) (Mus musculus, UniProt Q8VHB5); assay: Fluorescence polarization (FP) affinity against mCAIX; type: binding
murine CAIX (mCAIX), sequence (Q8VHB5 32-437): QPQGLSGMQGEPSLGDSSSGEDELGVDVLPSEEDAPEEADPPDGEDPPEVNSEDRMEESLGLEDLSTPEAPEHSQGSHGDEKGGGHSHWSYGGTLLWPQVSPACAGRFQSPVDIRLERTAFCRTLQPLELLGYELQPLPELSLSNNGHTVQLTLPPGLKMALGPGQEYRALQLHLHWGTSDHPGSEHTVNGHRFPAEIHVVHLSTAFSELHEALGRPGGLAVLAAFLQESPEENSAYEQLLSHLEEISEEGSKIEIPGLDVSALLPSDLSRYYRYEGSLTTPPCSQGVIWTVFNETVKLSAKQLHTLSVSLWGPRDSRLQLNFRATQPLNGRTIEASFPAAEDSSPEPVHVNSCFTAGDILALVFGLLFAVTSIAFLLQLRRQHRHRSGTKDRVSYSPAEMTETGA
Protocol: as §5, §4

Row | Structure (SMILES) | binding to PSMA on the cell surface by flow cytometry [1] | Kd (PSMA [2]) [nM] | binding to human ACP3 by FP (recombinant human ACP3) | co-elution with PSMA in size-exclusion chromatography (PSMA [3]) | Kd (human CAIX (hCAIX)) [nM] | binding to CAIX on the cell surface by flow cytometry [4] | Kd (bovine CAII (bCAII)) [nM] | Kd (murine CAIX (mCAIX)) [nM]
1 | CCOc1ccccc1-c1cccc(C[C@H](NC(=O)N[C@@H](CCC(=O)O)C(=O)O)C(=O)NCCCCCCNC(=S)Nc2ccc3c(c2)C(=O)OC32c3ccc(O)cc3Oc3cc(O)ccc32)c1 [compound 5] | able to bind to the antigen expressed on the tumor cell surface | 13 | did not bind | selective and kinetically stable interaction with PSMA | – | – | – | –
2 | NS(=O)(=O)c1ccc(-c2cccc(C[C@@H](NC(=O)CCC(=O)N[C@@H](CCCCNC(=S)Nc3ccc4c(c3)C(=O)OC43c4ccc(O)cc4Oc4cc(O)ccc43)C(=O)O)C(=O)NCC3(c4cccs4)CCOCC3)c2)cc1 [compound 21] | – | – | – | – | 0.95 | bound to the antigen expressed on the surface of cancer cells | 150 | 8.73
